Ends that are not written are not given here.
Assays:
Format in all cases: cell-based
[1] = system: transcription factor AP-1; experiment: Electrophoretic mobility shift assay (EMSA) for AP-1 activation in primary rat neurons / cortical cultures
Description: Nuclear extracts for electrophoretic mobility shift assays (EMSAs) were prepared as described previously (Adams et al., J. Leukocyte Biol., 62: 865-873 (1997)) using 1.0-2.0×10^7 cells per sample. All buffers were freshly supplemented with dithiothreitol (DTT, 0.5 mM), protease inhibitors: PMSF (0.5 mM), chymostatin, peptstatin-A, aprotinin, antipain, leupeptin (each at 1 μg/ml), and phosphatase inhibitors: NaF (10 mM), ZnCl2 (1 mM), sodium orthovanadate (1 mM), and sodium pyrophosphate (5 mM). Aliquots of the final dialyzates were stored at −80° C. and discarded after use.
AP-1 transcription factor activation was assayed using an electrophoretic mobility shift assay (EMSA), as described by Adams et al., J. Leukoc. Biol., 62:865-873 (1997)). Cultures of primary rat neurons (Cornell-Bell et al., Cell Calcium, 12: 185-204 (1991)) were stimulated for 3 hours with various concentrations (0, 1, 10, 100 ng/ml) of peptide CMX-9236. Nuclear extracts prepared as described above were separated by gel electophoresis on non-denaturing gels and subjected to the EMSA procedure. This EMSA used an AP-1 synthetic duplex probe (Angel, P., 1987, Cell 49:729-739) having the sequence 5′-[…] (SEQ ID NO:33) and its antisense copy (complement strand), which were end-labeled with P^32 using polynucleotide kinase and (γ-P^32)-ATP. For the EMSA reaction, the labeled probe (0.5 pmol) was mixed with 3 μg of nuclear extract protein in a solution containing 10 mM Tris-HCl, pH 7.5, 50 mM NaCl, 1 mM EDTA, 1 mM dithiothreitol, 5% glycerol, 0.02% β-mercaptoethanol, and 1 μg of poly-dI/dC (Pharmacia). Reaction mixtures were incubated at 25° C. for 20 minutes to allow complete complex formation by the duplex with its appropriate AP-1 protein. The mixture was then electrophoresed under non-denaturing conditions through 4% polyacrylamide gels in 0.5×TBE buffer (45 mM Trisma base, 45 mM boric acid, 1 mM EDTA). The gels were dried on 3 mm paper. Bands were visualized by autoradiography at −80° C. with one intensifying screen and quantified by laser densitometry. The upregulation of AP-1 and the activation and upregulation process of AP-1 was compared to control cultures.
Primary cortical cell cultures were grown to confluence and used in in vitro cultures for determining the effects of various representative peptide compounds on upregulation of AP-1. […] Extracts were prepared from the nuclei isolated from the primary culture homogenates, purified, and analyzed for the presence of specific transcription factors using the electrophoretic mobility shift assay (EMSA) method. The binding of ^32P-labeled duplex DNA probes specific for activator protein-1 (AP-1) or nuclear factor κB (NF-κB) was analyzed and quantified by autoradiography. After a 3-hour incubation of the cultures with 1 ng/ml of the peptide CMX-9236 there was a 15-fold increase of AP-1 relative to […] control cultures. […] Thus, a small peptide compound that is less than 20 amino acids long can simulate the properties of large growth factors such as NGF and BDNF, which exist as dimers of protein chains with molecular weights of 13,259 and 13,500, respectively.

SOD-1 mRNA = experiment: RT-PCR upregulation of SOD-1 mRNA in rat primary myocyte cultures; conditions: rat primary myocytes, 3-hour incubation
Description: Primary cultures of rat brain cortical cells were incubated with 100 ng/ml of peptide compound CMX-9236 for durations of 0 to 48 hours. mRNA was isolated from the cytoplasmic fraction of lysed cells according to standard methods (Angel et al., Cell 49:729-739, 1987). The RNA was incubated according to the RT-PCR protocol with two strands, 20 nucleotides long, one for the sense and one from the antisense strand. The sequences were selected to be unique for superoxide dismutase-1 (SOD-1), and to span one intron segment. […] The sequence of the two probe segments of the oligo dT segments for SOD are as follows: anti-sense strand, […] (SEQ ID NO:29), and sense strand, […] (SEQ ID NO:30). These span a sequence of 208 base pairs (bp) on the primary SOD sequence. The mixture was then treated with reverse transcriptase to obtain the cDNA according to standard PCR methods. The cDNA was then analyzed by electrophoresis and separated according to sequence lengths on a non-denaturing 5% polyacrylamide gel. The electrophoretically separated molecules were treated with ethidium bromide to stain double-stranded DNA fragments. […] The gels were then analyzed by a laser scanning fluorescence detector to quantitate the amount of messenger RNA for the extent of upregulation of SOD message and its time course of synthesis as a function of stimulation by CMX-9236. […]

[2] = system: superoxide dismutase-1 (SOD-1) mRNA; experiment: RT-PCR upregulation of SOD-1 mRNA in rat primary cortical cell cultures; conditions: 100 ng/ml
Description: The RT-PCR method (see, for example, Innis et al., PCR Protocols: A Guide to Methods and Applications, (Academic Press, San Diego, 1990)) was used to investigate the upregulation of the specific mRNA that codes for the enzyme superoxide dismutase (SOD).
Primary cortical cultures were obtained by growing newborn rat brain cortical cells in Delbecco's modified Eagle medium supplemented with 25 μg/ml of gentamycin and 10% fetal calf serum. The cells were isolated from the E-21 cortex of rat brain, plated at a density of 1×10^5 per ml and grown to confluence within four to five days in an atmosphere containing air and 5% CO2 at 37° C. as described in Cornell-Bell et al., Science, 247: 470-473 (1990) and Cell Calcium, 12: 185-204 (1991). Cultures were grown in 20 ml flasks as a monolayer and then exposed to various concentrations of peptides for studies of the effects of peptides on upregulation of genes for SOD and CAT and on the transmigration of transcription factor AP-1 to cell nuclei.
Primary cultures of rat brain cortical cells were incubated with 100 ng/ml of peptide compound CMX-9236 for durations of 0 to 48 hours. mRNA was isolated from the cytoplasmic fraction of lysed cells according to standard methods (Angel et al., Cell 49:729-739, 1987). The RNA was incubated according to the RT-PCR protocol with two strands, 20 nucleotides long, one for the sense and one from the antisense strand. The sequences were selected to be unique for superoxide dismutase-1 (SOD-1), and to span one intron segment. […] The sequence of the two probe segments of the oligo dT segments for SOD are as follows: anti-sense strand, […] (SEQ ID NO:29), and sense strand, […] (SEQ ID NO:30). These span a sequence of 208 base pairs (bp) on the primary SOD sequence. The mixture was then treated with reverse transcriptase to obtain the cDNA according to standard PCR methods. The cDNA was then analyzed by electrophoresis and separated according to sequence lengths on a non-denaturing 5% polyacrylamide gel. The electrophoretically separated molecules were treated with ethidium bromide to stain double-stranded DNA fragments. These were visualized by ultraviolet illumination and photographed. The gels were then analyzed by a laser scanning fluorescence detector to quantitate the amount of messenger RNA for the extent of upregulation of SOD message and its time course of synthesis as a function of stimulation by CMX-9236. Similar methods of analysis were used for other peptides.

fold-increase of AP-1 (binding of DNA duplex probe) ([1]; 100 ng/ml, 3 hours): 60 fold
Sequence: KKDGDGDFAIDAPE [CMX-9236, uncapped peptide]
fold-increase of AP-1 ([1]; 1 ng/ml, 3-hour incubation): 15 fold
upregulation of SOD mRNA (SOD-1 mRNA; 1 ng/ml): 3 fold
upregulation of SOD-1 mRNA transcripts (SOD-1 mRNA; 10-100 ng/ml): about 6 fold
time until SOD-1 mRNA stimulation returns to control levels [2]: ≤ 24 h
upregulation of SOD-1 mRNA transcripts ([2]; rat primary cortical cells, 3 hours incubation): 9 fold

Source: patent US8772237B2, “Compositions and methods for counteracting effects of reactive oxygen species and free radicals” (Ischemix, Inc., priority 1999, dated 2014)
